The Bradley open melting point set (2014)
“And” between values parts separate entries of the source, which are not always exact repeats. Identical values can stand only once.

SMILES	melting point
O=[N+]([O-])c1ccccc1O [2-nitrophenol]	46 °C
O=C(O)COc1ccccc1[N+](=O)[O-] [2-nitrophenoxyacetic acid]	158 °C
CCCC(C)S (stereo not given) [2-pentanethiol]	-112 °C
OCCOc1ccccc1 [2-phenoxyethanol]	13 °C
N#CC(=CNNc1ccccc1)c1ccccc1 [2-phenyl-3-(2-phenylhydrazino)prop-2-enenitrile]	156 °C
CCC(C)c1cc([N+](=O)[O-])cc([N+](=O)[O-])c1O (stereo not given) [2-sec-Butyl-4,6-dinitrophenol]	55 °C
CCCCCCCCCCCC(C)O (stereo not given) [2-tridecanol]	25 °C
CC(=O)c1ccc(Cl)c(Cl)c1 [3',4'-dichloroacetophenone]	74 °C
CCC(=O)c1cc(F)c(O)c(F)c1 [3',5'-difluoro-4'-hydroxypropiophenone]	130 °C
COc1cc(C(C)=O)cc(OC)c1O [3',5'-dimethoxy-4'-hydroxyacetophenone]	119 °C
CC(=O)c1ccc(F)c(Cl)c1 [3'-chloro-4'-fluoroacetophenone]	39 °C
CC(=O)Nc1cccc(F)c1 [3'-fluoroacetanilide]	88 °C
CC(=O)c1cccc([N+](=O)[O-])c1 [3'-nitroacetophenone]	78 °C
CC(=O)C(C)(C)C [3,3-Dimethylbutan-2-one]	-52.5 °C
C=CC(C)(C)C [3,3-dimethyl-1-butene]	-115 °C
CC(=O)C(C)(C)C [3,3-dimethyl-2-butanone]	-52 °C
CC1(C)C=Nc2ccccc21 [3,3-dimethyl-3H-indole]	228 °C
CCC(C)(C)CC [3,3-dimethylpentane]	-134 °C
CC(=O)OCC(OC(C)=O)C(OC(C)=O)C(OC(C)=O)C(OC(C)=O)C(=O)CBr (stereo not given) [3,4,5,6,7-penta-O-acetyl-1-bromo-1-deoxyhept-2-ulose]	124 °C
O=Cc1cc(F)c(F)c(F)c1 [3,4,5-trifluorobenzaldehyde]	25 °C
COc1cc(C=O)cc(OC)c1OC [3,4,5-trimethoxybenzaldehyde]	75 °C

SMILES	melting point
COc1cc(C#N)cc(OC)c1OC [3,4,5-trimethoxybenzonitrile]	94 °C
COc1cc(C(=O)Cl)cc(OC)c1OC [3,4,5-trimethoxybenzoyl chloride]	80 °C
Nc1ccc(Cl)c(Cl)c1 [3,4-Dichloroaniline]	72 °C
O=C(O)c1ccc(Cl)c(Cl)c1 [3,4-Dichlorobenzoic acid]	208 °C
Oc1ccc(Cl)c(Cl)c1 [3,4-Dichlorophenol]	67 °C
c1ccc2c(c1)cc1ccc3cccc4ccc2c1c34 [3,4-benzopyrene]	179 °C
Nc1ccncc1N [3,4-diaminopyridine]	219 °C
O=[N+]([O-])/C=C/c1ccc(Cl)c(Cl)c1 [3,4-dichloro-beta-nitrostyrene]	93 °C
Nc1ccc(Cl)c(Cl)c1 [3,4-dichloroaniline]	72 °C
O=C(c1ccccc1)c1ccc(Cl)c(Cl)c1 [3,4-dichlorobenzophenone]	102 °C
O=[N+]([O-])c1ccc(Cl)c(Cl)c1 [3,4-dichloronitrobenzene]	41 °C (2×) and 41.2 °C
Oc1ccc(Cl)c(Cl)c1 [3,4-dichlorophenol] [listing 1 of 2 here]	67 °C
Oc1ccc(Cl)c(Cl)c1 [3,4-dichlorophenol] [listing 2 of 2 here]	66 °C
CC=C(C)C(C)C [3,4-dimethyl-cis-2-pentene]	-114 °C
Cc1ccc(N)cc1C [3,4-dimethylaniline]	51 °C
Cc1ccc(C(=O)O)cc1C [3,4-dimethylbenzoic acid]	166 °C
O=C(Cl)c1cc([N+](=O)[O-])cc([N+](=O)[O-])c1 [3,5-Dinitrobenzoyl chloride]	69 °C
CC(C)(C)c1cc(CC(=O)O)cc(C(C)(C)C)c1O [3,5-di-tert-butyl-4-hydroxyphenylacetic acid]	156 °C
O=Cc1cc(Br)c(O)c(Br)c1 [3,5-dibromo-4-hydroxybenzaldehyde]	182 °C
O=Cc1cc(Br)cc(Br)c1 [3,5-dibromobenzaldehyde]	91 °C
O=C(O)c1cc(Cl)c(O)c(Cl)c1 [3,5-dichloro-4-hydroxybenzoic acid]	268 °C

SMILES	melting point
NNC(=O)c1cc(Cl)cc(Cl)c1 [3,5-dichlorobenzhydrazide]	206 °C
O=C(O)c1cc(Cl)cc(Cl)c1 [3,5-dichlorobenzoic acid]	186 °C
Oc1cc(Cl)cc(Cl)c1 [3,5-dichlorophenol]	68 °C
COc1cc(N=C=S)cc(OC)c1 [3,5-dimethoxyphenyl isothiocyanate]	51 °C
Cc1cc(C)n(C(N)=O)n1 [3,5-dimethyl-1h-pyrazole-1-carboxamide]	113 °C
Cc1cc(C)cc(N)c1 [3,5-dimethylaniline]	10 °C
Cc1cc(C)cc(O)c1 [3,5-dimethylphenol]	63 °C
O=Cc1cc([N+](=O)[O-])cc([N+](=O)[O-])c1O [3,5-dinitrosalicylaldehyde]	73 °C
CC(CCC(=O)O)C1CCC2C3C(O)CC4CC(O)CCC4(C)C3CC(=O)C12C (stereo not given) [3,7-dihydroxy-12-oxocholan-24-oic acid]	221 °C
CCCOC1CCC2(C)C(CC(=O)C3C2CCC2(C)C(OCCC)CCC32)C1 (stereo not given) [3,17-dipropoxyandrostan-7-one]	163 °C
Nc1ccc(CCC(=O)O)cc1 [3-(4-aminophenyl)propionic acid]	134 °C
COc1ccc(C2=CCC3(C)C(CCC4C3CCC3(C)C(OC(C)=O)CCC43)C2)cc1 (stereo not given) [3-(4-methoxyphenyl)androst-2-en-17-yl acetate]	179 °C
COc1c(B(O)O)cccc1C(=O)O [3-(Dihydroxyboryl)-2-methoxybenzoic acid]	157 °C
CC(C)(C)OC(=O)NC(CC(=O)O)c1ccccc1F (stereo not given) [3-(boc-amino)-3-(2-fluorophenyl)propionic acid]	143 °C
COc1cccc(C(CC(=O)O)NC(=O)OC(C)(C)C)c1 (stereo not given) [3-(boc-amino)-3-(3-methoxyphenyl)propionic acid]	82 °C
CSc1cccc(B(O)O)c1 [3-(methylthio)benzeneboronic acid]	160 °C
C[C@]12CC[C@H](O)CC1=CC[C@@H]1[C@@H]2CC[C@]2(C)C(=O)CC[C@@H]12 [3-Beta-Hydroxy-5-Androsten-17-One]	140 °C
O=[N+]([O-])c1cccc(O)c1 [3-Nitrophenol]	97 °C
CCOC(=O)c1[nH]c(C)c(C(C)=O)c1C [3-acetyl-2,4-dimethyl-5-(ethoxycarbonyl)pyrrole]	142 °C
CC(=O)c1cccc(C#N)c1 [3-acetylbenzonitrile]	99 °C

Other lines, results leading:

melting point	SMILES
-35 °C	CCCCCCCC(C)O (stereo not given) [2-nonanol]
-16 °C	CCCCCCC(C)=O [2-octanone]
38 °C	CCC(C(=O)O)c1ccccc1 (stereo not given) [2-phenylbutyric acid]
-27 °C	OCCc1ccccc1 [2-phenylethanol]
-6 °C	OCc1ccccn1 [2-pyridinemethanol]
12 °C	CCC(C)c1ccccc1O (stereo not given) [2-sec-Butylphenol]
13 °C	CCCCCCCCCC(C)=O [2-undecanone]
106 °C	C=Cc1ccccc1B(O)O [2-vinylbenzeneboronic acid]
-7 °C	COc1cccc(C(C)=O)c1 [3'-methoxyacetophenone]
131 °C	O=C(O)CCSCCC(=O)O [3,3'-thiodipropionic acid]
9 °C	O=C(O)CC(F)(F)F [3,3,3-trifluoropropionic acid]
27 °C	NCCC(c1ccccc1)c1ccccc1 [3,3-diphenylpropylamine]
38 °C	OCc1ccc(Cl)c(Cl)c1 [3,4-dichlorobenzyl alcohol]
-15 °C	Cc1ccc(Cl)c(Cl)c1 [3,4-dichlorotoluene]
133 °C	NC(=O)c1ccc(F)c(F)c1 [3,4-difluorobenzamide]
129 °C	O=C(O)Cc1ccc(O)c(O)c1 [3,4-dihydroxyphenylacetic acid]
-70 °C	CC(CC(=O)O)CC(C)(C)C (stereo not given) [3,5,5-trimethylhexanoic acid]

melting point	SMILES
47 °C	CN1C(=O)OC(C)(C)C1=O [3,5,5-trimethyloxazolidine-2,4-dione]
131 °C	CC(C)(C)c1cc(C(=Nc2ccccc2)Nc2ccccc2)cc(C(C)(C)C)c1O [3,5-Di-tert-butyl-4-hydroxy-N,N'-diphenyl-benzamidine]
82 °C	N#C/C=C/c1cc(C(F)(F)F)cc(C(F)(F)F)c1 [3,5-bis(trifluoromethyl)cinnamonitrile]
224 °C	O=C(O)c1cc(Cl)cc(Cl)c1O [3,5-dichlorosalicylic acid]
54 °C	CCC(C)(O)C#CC(C)(O)CC (stereo not given) [3,6-dimethyl-4-octyn-3,6-diol]
191 °C	O=C1Nc2ccccc2C[C@H]1c1ccccc1F [3-(2-Fluorophenyl)-1,2,3,4-tetrahydro-2-quinolone]
184 °C	Oc1cccc(C2CNCCN2)c1 (stereo not given) [3-(2-piperazinyl)phenol]
80 °C	OCC(O)COc1ccc(Cl)cc1 (stereo not given) [3-(4-chlorophenoxy)-1,2-propanediol]
166 °C	O=C(O)CC(CC(=O)O)c1ccc(Cl)cc1 [3-(4-chlorophenyl)glutaric acid]
153 °C	O=C(Nc1cccc(OC(=O)c2ccccc2)c1)c1ccccc1 [3-(benzoylamino)phenyl benzoate]
37 °C	COC(=O)c1cccc(N=C=O)c1 [3-(methoxycarbonyl)phenyl isocyanate]
29 °C	C/C(=C/C(=O)O)C(F)(F)F [3-(trifluoromethyl)crotonic acid]
81.5 °C	Oc1cccc(Nc2ccccc2)c1 [3-Anilinophenol]
110 °C	Cc1cccc(C(=O)O)c1 [3-Methylbenzoic acid]
142 °C	O=C(O)c1cccc([N+](=O)[O-])c1 [3-Nitrobenzoic acid]
86 °C	CC(=O)CC(=O)Nc1ccccc1 [3-Oxo-N-phenylbutanamide]
